Measured values published in patent publication US8431131B2, “CD38 and obesity” (Mayo Foundation for Medical Education and Research, priority 2007, dated 2013).
Blank lines part the entries; values can stand above or below the compound they belong to.

Assays:
[1] = test system: Ca2+ release induced by oxytocin; assay: Oxytocin-induced Ca2+ release in smooth muscle cells (control experiments); assay type: cell-based, mice; conditions: same conditions as p53 experiment
acetylated P53 = assay: Acetylated p53 immuno-staining in cultured smooth muscle cells (measure of endogenous SIRT activity); assay type: cell-based, mice; conditions: 100 μM, four to six hours
Procedure: (§1) FIG. 8. The effect of resveratrol and sirtinol upon the cADPR system. In A, ADP ribosyl cyclase activity was measured in liver plasma membranes using NGD as a substrate. Mice were treated with 100 μM of a test drug: DTT (dithiothreitol), resverastrol (Resv), or sirtinol. The control mice received no addition. Similar results were obtained using purified Aplysia ADPribosyl cyclase. In B, cADPR-induced Ca^2+ was measured in sea urchin egg homogenates. Ca^2+ was induced by 100 nM of cADPR with no further additions, or with 1 minute pre-incubation of 100 μM of the testing drugs 8-Br-cADPR (8-Br), resveratrol (Resv), or sirtinol. In C, experiments were conducted in smooth muscle cells in culture as described in FIG. 1E. Four to six hours before fixation and staining with acetylated P53 antibody, cells were treated with 100 μM of the testing drugs. 3-Deaza-cADPR is a cell permeable cADPR agonist. […] All experiments were repeated three to four times. The asterisk denotes significant differences between control and treatment.
For experiments, cells were made quiescent by replacing the growth medium with SmBM without serum or growth factors. Cell medium was again replaced with SmBM containing testing agents solubilized in 0.1% DMSO or water added to the final concentrations.
Smooth muscle cells were obtained as described above. Cells were fixed in suspension in PBS plus 2% paraformaldehyde for 20 minutes at room temperature with constant agitation, and cells were washed three times for 10 minutes with TBS-Triton X-100 (0.1%). After that, cells were incubated in blocking buffer (TBS, 30 mM glycine, and 5% BSA) for 60 minutes and incubated with anti-acetylated p53 rabbit polyclonal antibody (1:1000) (Abcam, Inc.; Cambridge, Mass.) overnight at 4° C. with constant agitation. […]
Laser confocal images were obtained using the Olympus Fluoview laser scanning confocal microscopy, with objective Olympus UplanApo oil, 100×, 1.35 numerical aperture. Nuclei were excited at 543 nm, and their emission recorded at 570 nm.

SIRT1 = biological target: T1, SIRT1 (Homo sapiens, UniProt Q96EB6); assay: Effect of CD38 metabolites on SIRT1 activity; assay type: biochemical
T1 construct: purchased Biomol International, LP
T1 sequence (Q96EB6 1-747): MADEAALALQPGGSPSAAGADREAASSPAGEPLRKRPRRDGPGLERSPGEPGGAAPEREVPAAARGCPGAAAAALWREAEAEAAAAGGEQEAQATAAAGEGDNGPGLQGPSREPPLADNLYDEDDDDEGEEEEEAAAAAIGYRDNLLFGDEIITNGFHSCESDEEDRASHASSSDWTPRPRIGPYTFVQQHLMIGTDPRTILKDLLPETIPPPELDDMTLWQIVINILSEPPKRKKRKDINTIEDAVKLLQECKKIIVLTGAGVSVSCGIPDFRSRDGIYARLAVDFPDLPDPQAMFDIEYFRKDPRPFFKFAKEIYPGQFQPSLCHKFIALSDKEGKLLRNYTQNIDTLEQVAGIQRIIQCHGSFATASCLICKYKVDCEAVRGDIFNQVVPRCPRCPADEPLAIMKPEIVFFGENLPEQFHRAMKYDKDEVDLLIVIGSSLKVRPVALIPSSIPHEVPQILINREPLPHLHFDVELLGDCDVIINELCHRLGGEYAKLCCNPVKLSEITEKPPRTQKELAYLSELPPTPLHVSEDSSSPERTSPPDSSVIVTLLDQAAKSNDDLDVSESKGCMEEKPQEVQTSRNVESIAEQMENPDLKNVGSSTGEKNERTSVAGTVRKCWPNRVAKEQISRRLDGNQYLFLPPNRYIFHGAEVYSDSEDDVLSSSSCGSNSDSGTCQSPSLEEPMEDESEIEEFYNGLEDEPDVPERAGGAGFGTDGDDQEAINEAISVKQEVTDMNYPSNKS
Procedure: SIRT1 polypeptide activity was determined using the SIRT1 Fluorimetric Kit (Biomol International, LP; Plymouth Meeting, Pa.) according to the manufacturer's instructions. Briefly, nuclei prepared from wild-type or CD38 knockout mice (1 μg protein/well) were incubated in 40 mM Tris-HCl (pH 7.4) containing human recombinant SIRT1 (1 U/assay), 500 μM NAD+, and 100 μM Flour de Lys-SIRT1 substrate for 30 minutes at 37° C. Following incubation, the reaction was terminated by addition of a solution containing Flour de Lys Developer and 2 mM nicotinamide. Values were determined by reading fluorescence on a fluorimetric plate reader (Spectramax Gemini XPS; Molecular Devices; Sunnyvale, Calif.) with an excitation wavelength of 360 nm and emitted wavelength of 460 nm. Calculation of net fluorescence expressed as percent of control included the subtraction of a blank consisting of buffer containing no NAD+. Endogenous SIRT polypeptide activity was determined as described above with the exception that no recombinant SIRT enzyme was added to the reaction mixture and that the nuclear preparations were sonicated before the assay. The data were expressed as NAD stimulated deacetylation.
CD38 metabolites were tested for an effect on SIRT1 activity.

CD38 polypeptide = biological target: T2, CD38 polypeptide (Homo sapiens, UniProt P28907); assay: CD38 NADase activity assay with etheno-NAD as substrate; assay type: biochemical; conditions: 1 mM, 10 minutes incubation
T2 sequence (P28907 1-300): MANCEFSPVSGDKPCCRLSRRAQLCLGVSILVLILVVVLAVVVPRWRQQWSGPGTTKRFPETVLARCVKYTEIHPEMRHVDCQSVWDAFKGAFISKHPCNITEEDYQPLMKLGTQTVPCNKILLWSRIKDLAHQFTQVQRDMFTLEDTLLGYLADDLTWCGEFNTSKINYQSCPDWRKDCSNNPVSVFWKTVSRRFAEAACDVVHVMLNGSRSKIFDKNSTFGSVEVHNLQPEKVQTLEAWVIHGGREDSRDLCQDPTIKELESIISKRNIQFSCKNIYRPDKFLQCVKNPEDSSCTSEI
Excerpt: Agents that can inhibit CD38 expression or activity in cells can be identified by screening candidate agents (e.g., from synthetic compound libraries and/or natural product libraries). Candidate agents can be obtained from any commercial source and can be chemically synthesized using methods that are known to those of skill in the art. Candidate agents can be screened and characterized using in vitro cell-based assays, cell free assays, and/or in vivo animal models. For example, a CD38 NADase assay can be used to identify CD38 antagonists. NADase activity can be determined using etheno-NAD. Enzyme preparations (e.g., purified CD38) can be incubated in a medium containing, for example, 0.2 mM […], 0.25 M sucrose, and 40 mM Tris-HCl (pH 7.2) at 37° C. NADase activity can be determined by measuring the change in fluorescence over time at, for example, 300 nm excitation and 410 nm emission. Candidate agents can be added to the CD38 assay, and a decrease of the NADase activity compared to control can be determined. […]
ADP-ribosyl cyclase polypeptide activity was measured using the NGD technique as described herein, and NADase polypeptide activity was determined using etheno-NAD as described elsewhere (Johnson et al., Diabetes, 55:2737-2746 (2006)). […] Activity was determined by measuring the change in fluorescence over time at 300 nm excitation and 410 nm emission. […]

ADP ribosyl cyclase = ADP ribosyl cyclase activity (cADPR synthesis) in liver plasma membranes using NGD as substrate; assay type: biochemical, mice; conditions: 100 μM test drug
Procedure: as §1
ADP-ribosyl cyclase polypeptide activity was measured using the NGD technique as described herein, and NADase polypeptide activity was determined using etheno-NAD as described elsewhere (Johnson et al., Diabetes, 55:2737-2746 (2006)). […] Activity was determined by measuring the change in fluorescence over time at 300 nm excitation and 410 nm emission.

[2] = test system: high fat diet-induced obesity; assay: High fat diet-induced obesity in mice; assay type: in vivo; conditions: 30 mg/kg/day intraperitoneal, two weeks of HFD
Procedure: FIG. 9. […] Wild type mice were treated with resveratrol (a SIRT stimulator), and CD38 (−/−) mice were treated with Sirtinol (a SIRT antagonist) during 2 weeks of high fat diet. […] The number of animals in each group was between four and six.
Metabolic Studies and Diet At one year of age, CD38 (−/−) mice were placed on either a normal caloric diet (NCD; diet number 3807, KLIBA-NAFAG) or an HFD (AIN-93G modified to provide 60% of calories from fat, Researchdiets) ad libitum and monitored for six weeks. Body weight was recorded weekly, and food intake was measured for seven consecutive days. Oxygen consumption and energy expenditure (ER) measurements were performed in mice fed HFD for four weeks, and quantification of blood metabolites were performed. For the experiments using resveratrol and sirtinol, the HFD was supplemented with daily intraperitoneal injections of 30 mg/kg of drug (or vehicle) for two weeks. Cultured Smooth Muscle Cells from Wild-Type and CD38 Knockout Mice
Wild type mice were treated with 30 mg/kg/day of resveratrol, and CD38 (−/−) were treated with the same dose of sirtinol to determine the role of the SIRT enzymes upon high fat diet-induced obesity.

[3] = test system: cADPR-induced Ca2+ release; assay: cADPR-induced Ca2+ release in sea urchin egg homogenates; assay type: biochemical, Lytechinus pictus; conditions: 100 nM cADPR, 1 minute pre-incubation with 100 μM drug
Procedure: as §1, with “Similar results were obtained using purified Aplysia ADPribosyl cyclase.” left out, “treatment. cADPR-induced Ca^2+ release was determined in sea urchin egg homogenates using fluo-3 as a Ca^2+ indicator as described elsewhere (Chini, Braz. J. Med. Biol. Res., 35:543-547 (2002)). […] Fluo-3 fluorescence was monitored at 490 nm excitation and 535 nm emission in a 250-μL cuvette, held at 17° C. with a circulating water bath and continuously mixed with a magnetic stirring bar, in a Hitachi spectrofluorometer (F-2000).” for “treatment.”

Compound: 3-Deaza-cADPR
effect on oxytocin-induced Ca2+ release [1]: increased oxytocin effect

Compound: N=c1c2nc(Br)n3c2ncn1C1OC(COP(=O)(O)OP(=O)(O)OCC2OC3C(O)C2O)C(O)C1O (centres unmarked) [8-Br-cADPR]
levels of p53 acetylation in cells (acetylated P53; smooth muscle cells): neither the cell permeable cADPR antagonist (8-br-cADPR) nor the cADPR agonist (3-deaza-cADPR) had any effect
effect on oxytocin-induced Ca2+ release [1]: blocked Ca^2+ release induced by oxytocin

effect on SIRT1 activity (SIRT1): exhibited an effect
Compound: NC(=O)c1ccc[n+]([C@@H]2O[C@H](COP(=O)([O-])OP(=O)(O)OC[C@H]3O[C@@H](n4cnc5c(N)ncnc54)[C@H](O)[C@@H]3O)[C@@H](O)[C@H]2O)c1 [NAD]

effect on SIRT1 activity (SIRT1): exhibited an effect
CD38 NADase activity (CD38 polypeptide): substantial inhibition
Compound: NC(=O)c1cccnc1 [nicotinamide]

Compound: Oc1ccc(C=Cc2cc(O)cc(O)c2)cc1 [resveratrol]
acetylated p53 level (acetylated P53; smooth muscle cells from wild type mice): decreased acetylated p53
effect upon cADPR synthesis (ADP ribosyl cyclase activity) (ADP ribosyl cyclase): Neither resveratrol (a SIRT activator) nor sirtinol (a SIRT inhibitor) exhibited any effect
protection against high fat diet-induced obesity ([2]; wild type mice): protected against high fat induced obesity
effect upon cADPR-induced Ca2+ release [3]: Neither resveratrol (a SIRT activator) nor sirtinol (a SIRT inhibitor) exhibited any effect

Compound: CC(NC(=O)c1ccccc1/N=C/c1c(O)ccc2ccccc12)c1ccccc1 (centres unmarked) [sirtinol]
acetylated p53 level (acetylated P53; smooth muscle cells from CD38 (−/−) mice): increased acetylated p53
effect upon cADPR synthesis (ADP ribosyl cyclase activity) (ADP ribosyl cyclase): nor sirtinol (a SIRT inhibitor) exhibited any effect
protective effect of CD38 knock out upon high fat diet-induced obesity ([2]; CD38 (−/−) mice): abrogated
weight gain compared with vehicle treated CD38 (−/−) mice ([2]; CD38 (−/−) mice): gained a statistically significant amount of weight
